In this assay the test system is 653999-131-R-J2-PDC complex spheroids, growth inhibition. The assay can be described thus: Anticancer human tumor 653999-131-R-J2-PDC patient-derived lung adenocarcinoma cell line growth inhibition [RAS]. The conditions noted are these: for IC50: curve of first compound; for viability, T/C: stronger effect = lower value. The method, boiled down: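 Tumour cells grown as complex spheroids with HUVEC endothelial cells and mesenchymal stem cells, treated with RAS pathway inhibitor combinations. Each agent spans half-log steps from near clinical Cmax, or 10 microM where Cmax is unknown.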

This note sets out measurements from PubChem BioAssay AID2060886 (Molecular Pharmacology Branch, DTP, NCI, 2025).
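Also: spheroids exposed to the agents for seven days before the readout.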

As a reminder, the IC50 is the concentration that inhibits the measured activity by half. One may read the viability, T/C as the result in the treated group divided by that in the control group, in per cent. Take `CC(Nc1ccc2c(c1)OCCn1cc(N3C(=O)OCC3C(F)F)nc1-2)C(N)=O` (configuration not stated) + C#Cc1c(F)ccc2cc(O)cc(-c3ncc4c(N5CC6CCC(C5)N6)nc(OCC56CCCN5CC(F)C6)nc4c3F)c12: the IC50 (second compound 0.0316 µM) amounted to 558 nM; the IC50 (second compound 0.1 µM) was 273 nM; the IC50 (second compound 0.316 µM) is 117 nM; the IC50 (second compound 1 µM) was under 31.6 nM; the IC50 (second compound 3.16 µM) was under 31.6 nM; the IC50 (second compound 10 µM) is under 31.6 nM. Also, the viability, T/C (second compound 0.0316 µM, first compound 0.0316 µM) is 86.3%; the viability, T/C (second compound 0.0316 µM, first compound 0.1 µM) was 70.3%; the viability, T/C (second compound 0.0316 µM, first compound 0.316 µM) was 53.8%; the viability, T/C (second compound 0.0316 µM, first compound 1 µM) is 44.4%; the viability, T/C (second compound 0.0316 µM, first compound 3.16 µM) was 35.1%; the viability, T/C (second compound 0.0316 µM, first compound 10 µM) was 22.3%. Besides, the viability, T/C (second compound 0.1 µM, first compound 0.0316 µM) was 77.2%; the viability, T/C (second compound 0.1 µM, first compound 0.1 µM) is 66.9%; the viability, T/C (second compound 0.1 µM, first compound 0.316 µM) was 47%; the viability, T/C (second compound 0.1 µM, first compound 1 µM) is 32.3%; the viability, T/C (second compound 0.1 µM, first compound 3.16 µM) was 26.1%; the viability, T/C (second compound 0.1 µM, first compound 10 µM) is 22.6%. The viability, T/C was 63.6% (second compound 0.316 µM, first compound 0.0316 µM); 51.2% (second compound 0.316 µM, first compound 0.1 µM); 39.5% (second compound 0.316 µM, first compound 0.316 µM); 25.5% (second compound 0.316 µM, first compound 1 µM); 18.9% (second compound 0.316 µM, first compound 3.16 µM); 13.5% (second compound 0.316 µM, first compound 10 µM). Further, the viability, T/C is, setting by setting: (second compound 1 µM, first compound 0.0316 µM) 39.9%; (second compound 1 µM, first compound 0.1 µM) 35.1%; (second compound 1 µM, first compound 0.316 µM) 28.1%; (second compound 1 µM, first compound 1 µM) 23%; (second compound 1 µM, first compound 3.16 µM) 19%; (second compound 1 µM, first compound 10 µM) 11%. Also, the viability, T/C by setting is: (second compound 3.16 µM, first compound 0.0316 µM) 30.1%; (second compound 3.16 µM, first compound 0.1 µM) 28.4%; (second compound 3.16 µM, first compound 0.316 µM) 22.9%; (second compound 3.16 µM, first compound 1 µM) 11.8%; (second compound 3.16 µM, first compound 3.16 µM) 13.9%; (second compound 3.16 µM, first compound 10 µM) 7.23%. Further, the viability, T/C runs as follows: (second compound 10 µM, first compound 0.0316 µM) 17.1%; (second compound 10 µM, first compound 0.1 µM) 14.3%; (second compound 10 µM, first compound 0.316 µM) 10.6%; (second compound 10 µM, first compound 1 µM) 8.07%; (second compound 10 µM, first compound 3.16 µM) 5.81%; (second compound 10 µM, first compound 10 µM) 4.16%.
Take `CC(=O)OC12COC1CC(O)C1(C)C(=O)C(O)C3=C(C)C(OC(=O)C(O)C(NC(=O)OC(C)(C)C)c4ccccc4)CC(O)(C(OC(=O)c4ccccc4)C21)C3(C)C` (configuration not stated): the viability, T/C by setting is: (compound 0.0316 µM) 57.5% [middle of 4 runs]; (compound 0.1 µM) 58.8% [middle of 4 runs]; (compound 0.316 µM) 55.9% [middle of 4 runs]; (compound 1 µM) 61.6% [middle of 4 runs]; (compound 10 µM) 67.2% [middle of 4 runs].
